# Laboratory results reported in patent publication US11116735B2, “Use of substituted benzylideneguanidine derivatives as synergists for polymyxin antibiotics” (GUANGZHOU INSIGHTER BIOTECHNOLOGY CO., LTD., priority 2015, dated 2021).
# Experiments:
# E. coli 3Y-9 = assay: MIC by doubling dilution, colistin sulfate-susceptible E. coli 3Y-9; format: cell-based, Escherichia coli
# E. coli 3B-24 = assay: MIC by doubling dilution, colistin sulfate-susceptible E. coli 3B-24; format: cell-based, Escherichia coli
# weanling piglets = assay: Synergy of derivatives and colistin sulfate in the feed for weanling piglets; format: in vivo, Duroc×Landrace×Large crossbred lean weanling piglets; details: creep feed with 20 ppm colistin sulfate and 150 ppm derivative (hydrochloride), ten days
# Procedure: 90 28-day-aged Duroc×Landrace×Large crossbred lean weanling piglets similar in weight were divided into 9 groups, 10 piglets in each group. For each group, colistin sulfate and/or various substituted benzylideneguanidine derivatives were added into the antibiotic-free creep feed. The piglets were given ad libitum access to feed and water during the experiment. Weight gain, feed efficiency and diarrhea rate of each group within ten days were recorded.
# Shigella sp. 2D89 = assay: MIC, resistance reversal by various concentrations of compound 3, Shigella sp. 2D89
# Procedure: The compound 3 in this embodiment was in the form of a hydrochloride, i.e., the experiments were carried out with a hydrochloride of compound 3.
# In vitro minimum inhibitory concentrations of colistin sulfate against the strains where the cultures respectively comprised various concentrations of compound 3 were also measured.
smiles,measurement,setting,value
CC(C)Oc1ccc(C=NN=C(N)NN=Cc2ccc(OC(C)C)cc2)cc1 [Compound 3],In vitro minimum inhibitory concentration (MIC) of the substance alone,"E. coli 3Y-9; E. coli 3Y-9, colistin sulfate-susceptible, substance alone, derivatives as hydrochlorides",>800 ppm
same,In vitro MIC of colistin sulfate in the presence of the substituted benzylideneguanidine derivative,"E. coli 3Y-9; E. coli 3Y-9, culture comprised 20.0 ppm of the derivative (hydrochloride), colistin sulfate serially diluted",0.50 ppm
same,In vitro minimum inhibitory concentration (MIC) of the substance alone,"E. coli 3B-24; E. coli 3B-24, colistin sulfate-susceptible, substance alone, derivatives as hydrochlorides",>800 ppm
same,In vitro MIC of colistin sulfate in the presence of the substituted benzylideneguanidine derivative,"E. coli 3B-24; E. coli 3B-24, culture comprised 20.0 ppm of the derivative (hydrochloride), colistin sulfate serially diluted",0.50 ppm
same,Average daily weight gain,weanling piglets,258 g
same,Diarrhea rate,weanling piglets,8%
same,Feed conversion ratio,weanling piglets,1.441
same,In vitro MIC of colistin sulfate in the presence of compound 3,Shigella sp. 2D89; 5 ppm compound 3,16.00 ppm
same,In vitro MIC of colistin sulfate in the presence of compound 3,Shigella sp. 2D89; 10 ppm compound 3,2.00 ppm
same,In vitro MIC of colistin sulfate in the presence of compound 3,Shigella sp. 2D89; 20 ppm compound 3,1.00 ppm
same,In vitro MIC of colistin sulfate in the presence of compound 3,Shigella sp. 2D89; 40 ppm compound 3,0.25 ppm
same,In vitro MIC of colistin sulfate in the presence of compound 3,Shigella sp. 2D89; 80 ppm compound 3,0.25 ppm
same,In vitro MIC of the substance alone,"Shigella sp. 2D89; colistin sulfate with 0 ppm compound 3, or compound 3 (hydrochloride) in the absence of colistin sulfate",>800 ppm
